Source: patent publication US11352334B2, “3-(5-chloro-2-oxobenzo[d]oxazol-3(2H)-yl) propanoic acid derivatives as KMO inhibitors” (THE UNIVERSITY COURT OF THE UNIVERSITY OF EDINBURGH, priority 2013, dated 2022)

Molecular target: T1, human KMO (Homo sapiens, UniProt O15229)
T1 construct: Full length human KMO was amplified by PCR from pcDNA5/FRT/V5-His-TOPO/hKMO; made in house; host or cells: Spodoptera frugiperda Sf9 cells (baculovirus); purified membrane fraction used
Assay: KMO MS Rapidfire assay
Format: biochemical
Settings: human KMO-membranes from Sf9 cells, 10 μM Kynurenine, 200 μM NADPH, 3-HK detected by MS
Experimental: pFastbac1 GST-KMO was transposed into the baculovirus genome using the BAC-to-BAC technology (Invitrogen) and bacmid DNA was prepared and transfected into Spodoptera frugiperda (Sf9) cells using Cellfectin II (Invitrogen).
Cells were harvested after 48 hours and disrupted by blending in 50 mM Hepes, pH 7.4, 1 mM EDTA buffer containing protease inhibitors. A low speed spin (400 g) was used to remove cell debris, followed by a high speed spin (75 000 g) to pellet the membranes. The membranes were purified in a discontinuous sucrose density gradient by re-suspending in 10% (w/v) sucrose and layering over 40% (w/v) sucrose, both in the above buffer. This was centrifuged at 150 000 g and the purified membranes were taken from the interface, collected by centrifugation at 100 000 g, resuspended in buffer and aliquoted for storage at −80° C.
11 point, 3-fold serial dilutions of test compounds were prepared in DMSO and 100 nL of these solutions were dispensed into 384-well V-base polypropylene plates (Greiner Bio-one, Stonehouse, UK) using an Echo 555 acoustic dispenser (Labcyte, Sunnyvale, Calif.). This gave a final assay concentration range between 100 μM and 1.7 nM in 10 μL final assay volume (see below). 100 nL DMSO was dispensed into columns 6 and 18 for high and low controls, respectively, with prior inactivation of the enzyme in column 18 by pre-dispense of 30 μL of 0.5% (v/v) TFA. […]

T1 sequence (O15229 whole entry): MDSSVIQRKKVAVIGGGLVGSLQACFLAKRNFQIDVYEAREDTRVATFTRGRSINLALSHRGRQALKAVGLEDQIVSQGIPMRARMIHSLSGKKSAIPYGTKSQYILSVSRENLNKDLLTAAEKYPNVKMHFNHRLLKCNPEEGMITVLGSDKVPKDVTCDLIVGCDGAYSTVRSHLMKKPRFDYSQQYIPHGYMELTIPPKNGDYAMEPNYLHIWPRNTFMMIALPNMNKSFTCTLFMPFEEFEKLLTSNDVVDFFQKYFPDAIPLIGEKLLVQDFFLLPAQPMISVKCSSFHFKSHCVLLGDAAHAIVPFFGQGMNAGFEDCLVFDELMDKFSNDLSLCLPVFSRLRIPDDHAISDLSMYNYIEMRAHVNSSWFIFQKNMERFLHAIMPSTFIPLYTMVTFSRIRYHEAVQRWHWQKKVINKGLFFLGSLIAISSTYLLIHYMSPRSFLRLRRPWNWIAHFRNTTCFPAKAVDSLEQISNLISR

median pIC50: 7.9
Structure (SMILES): Cc1cc2oc(=O)n(CCC(=O)O)c2cc1Cl [Example 1, 3-(5-Chloro-6-methyl-2-oxobenzo[d]oxazol-3(2H)-yl)propanoic Acid]
